Measured values from US12268739B2, “Use of toll-like receptor 2 (TLR-2) agonist for modulating human immune response” (Children's Medical Center Corporation, priority 2018, dated 2025).

Test system: human adult PBMCs
Assay: Cytokine production by stimulated human adult PBMCs (ELISA / multiplex)
Assay type: cell-based
Description: ELISAs and Multiplex-Analyte Assays. Supernatants derived from human PBMCs stimulations were assayed by ELISA for TNF and IL-6 (ThermoFisher Scientific; Waltham, MA, USA). Cytokine and chemokine expression profiles (e.g., IFNγ, IL-9, IL-10, IL-12 (p70), IL-13, IL-1β, IL-23, IL-27, IL-28A, IL-33, IL-6, MIP-3α/CCL20, and TNF) in cell culture supernatants were measured using a customized Milliplex® Human Th17 Magnetic Bead Panel according to the manufacturer's instructions (Millipore, Chicago, IL, USA). Assays were read and analyzed on the Luminex® 100/200TM System and xPOTENT® software (Luminex, Austin, TX). A minimum threshold was set at the minimum detectable concentration for each individual assay, defined as three standard deviations above the mean background.
PBMCs were isolated from blood using a Ficoll density gradient. PBMCs either used fresh or were stored at 5×10^7 cells per vial in 1 mL RPMI containing 20% autologous plasma and 10% DMSO at −80° C. until use. […] PBMCs isolated from human adult donors or THP1-NF-κB cells were resuspended at a concentration of 10^5 cells/200 μl of RPMI supplemented with 10% of platelet-poor plasma or THP1 culture medium, respectively. […] After 24 hours of incubation (37° C., 5% CO2), plates were spun down (500×g, room temperature, 5 minutes) and supernatants were harvested for further analysis.

[1] = human adult PBMCs, 24 hours, compounds at 100 µM (FIG. 7), ELISA, median

CNC(=O)c1c(NC(=O)c2ccc(S(=O)(=O)N(C)C)cc2)sc2c1CCC2 [Compound 80]
Activation of human adult PBMCs (384 and 96 well assay): induced activation | Cytokine production (TNF and IL-6) from human adult PBMCs (24 hours, 100 μM, ELISA): induces cytokine production | Adult PBMCs (median ng/ml) IL-6 (N = 7) [1]: 1.868 ng/mL | Adult PBMCs (median ng/ml) TNFa (N = 13) [1]: 0.1958 ng/mL
